How the values were obtained:
Format in all cases: cell-based
beta lactamase = assay: Beta-lactamase inhibitor assay with nitrocefin probe (Example 1, FIG. 1); conditions: 4 μg/mL inhibitor, 0.25 mg/mL nitrocefin, 35° C., 4 hours
Procedure: By comparing the signal from an “inhibited” well to one containing the probe and microbes alone, the efficacy of the inhibitor may be tested.
Microbes were prepared by diluting colonies into saline to reach a McFarland value of 0.5, which was verified using a spectrophotometer. This was diluted 1:20 into saline and 50 μI of inoculum was added to wells of a 384-well plate. For each strain, 25 μI of solutions containing either 0.25 mg/mL nitrocefin alone (Nitro), 0.25 mg/mL nitrocefin and 4 μg/mL clauvulanate (Nitro Clay), or 0.25 mg/mL nitrocefin and 4 μg/mL tazobactam (Nitro Tazo) were added to duplicate wells. Inoculated plates were incubated at 35° C., shaking at 150 rpm for 4 hours. Absorbance was read at 490 nm and values shown in FIG. 1 are the absorbance in the indicated condition minus the absorbance from microbial inoculum alone without nitrocefin. A greater value indicates microbial ability to degrade nitrocefin, and thus, the presence of a beta lactamase. A reduction in absorbance value in the presence of an inhibitor indicates the beta lactamase present is sensitive to the inhibitor.

E. coli = assay: Acidimetric carbapenemase assay, four wells, intact microbes (Example 2); parameters: key: Normalized activity = (Well1−Well2)−(Well3−Well4), pH indicator signal; conditions: 5 mg/mL imipenem solution added 1:1, 4 hours
Source text: (§1) In an exemplary embodiment, the assay comprises a minimum of 4 wells and utilizes a sample comprising intact microbes. The first well (Well1) comprises a medium such as a buffered saline solution or a nutrient broth, a carbapenem, ionic zinc, and a pH indictor. The second well (Well2) comprises the medium, a carbapenem, ionic zinc, a pH indictor, and a microbe sample comprising <1×10^8 CFU microbes. The third well (Well3) comprises the medium, ionic zinc, and a pH indictor. The fourth well (Well4) comprises the medium, ionic zinc, a pH indictor, and a microbe sample comprising <1×10^8 CFU microbes. The following formula can then be utilized to normalize the result: Normalized Activity=(Well1−Well2)−(Well3−Well4) [Formula 1]
(§2) The above says that imipenem degradation is the change in pH (e.g. loss of signal) due to the presence of microbes less the change in pH (e.g. loss of signal) due to microbes in solution only.
(§3) Example 2. Microbes were prepared by diluting colonies into saline to reach a McFarland value of 0.5, which was verified using a spectrophotometer. 100 μL of the microbe solution was added to each of 2 wells in a 96-well plate. 100 μL of saline was added to 2 separate wells on the plate. 100 μL of an imipenem solution containing 5 mg/mL imipenem, 0.1 mM ZnSO4, and 10 μM Fluorescein Na salt, pH 8, was added to one of the microbe-containing wells (Well2) and one of the saline wells (Well1). 100 μL of a negative control solution containing 0.1 mM ZnSO4, and 10 μM Fluorescein Na salt pH 7.5, was added to one of the microbe-containing wells (Well4) and one of the saline wells (Well3). Plates were incubated, shaking at 35° C. for 4 hours and fluorescence of the wells was read at […]. The values reported were calculated to determine the hydrolysis of imipenem by the microbes using Equation 1.

K. pneumoniae = assay: as above; conditions: 5 mg/mL imipenem solution added 1:1, 4 hours
Source text: as §1, §2, §3

E coli [1] = assay: Carbapenemase assay at various concentrations of imipenem (Example 3); conditions: within 4 hours
Source text: as §1
(§4) Example 3. Microbes were prepared by diluting colonies into saline to reach a McFarland value of 0.5, which was verified using a spectrophotometer. 25 μL of the microbe solution was added to each of 2 wells in a 384-well plate. 25 μL of saline was added to 2 separate wells on the plate. 25 μL of an imipenem solution containing imipenem, 0.1 mM ZnSO4, and 10 μm Fluorescein Na Salt, pH 8, was added to one of the microbe-containing wells (Well2) and one of the saline wells […]. 25 μL of a negative control solution containing 0.1 mM ZnSO4, and 10 μM Fluorescein Na Salt, pH 7.5, was added to one of the microbe containing wells (Well4) and one of the saline wells (Well3). Plates were incubated, shaking at 35° C. for 3 hours and fluorescence of the wells was read at Em=490/Ex=510. This organization of the assay was performed multiple times, varying the concentration of imipenem in solution. The assay was run with final imipenem concentrations of 50 μg/mL, 125 μg/mL, 250 μg/mL, 500 μg/mL, 1250 μg/mL, and 2500 μg/mL. The values reported were calculated to determine the hydrolysis of imipenem by the microbes using Equation 1.

K pneumoniae [2] = assay: as above; parameters: unit not given here; conditions: within 4 hours
Source text: as §1, §4

E coli [3] = assay: Carbapenemase assay performed with dried reagents (Example 4); conditions: E coli ATCC 25922, known carbapenemase none, 300 μg/mL imipenem, 4 hours
Source text: as §1
(§5) Example 4. Microbes were prepared by diluting colonies into saline to reach a McFarland value of 0.5, which was verified using a spectrophotometer. 100 μL of the microbe solution was added to each of 2 wells in a vacuum-dried 96-well plate (Well2, Well4). 100 μL of saline was added to 2 separate wells on the plate (Well1 and Well3). Following addition of microbial or saline solutions, the final concentrations of the contents in each well were: 300 μg/mL imipenem, 0.05 mM ZnSO4, and 10 μM Fluorescein Na Salt, pH 7.8, (Well1, Well2); only 0.05 mM ZnSO4 and 10 μM Fluorescein Na Salt, pH 7.8, were present in the third and four wells (Well3, Well4). Plates were incubated, shaking at 35° C. for 4 hours and fluorescence of the wells was read at Em=490/Ex=510. The values reported were calculated to determine the hydrolysis of imipenem by the microbes using Equation 1.

K pneumoniae [4] = assay: as above; conditions: 4 hours
Source text: as §1, §5

## O=C(O)[C@H]1/C(=C/CO)O[C@@H]2CC(=O)N21 [clauvulanate]
Beta lactamase
  inhibitor activity against strains with known beta lactamases (reduction in nitrocefin absorbance at 490 nm): active

## C[C@@H](O)[C@H]1C(=O)N2C(C(=O)O)=C(SCCN=CN)C[C@H]12 [imipenem]
E. coli; E. coli 25922, known carbapenemase none
  Carbapenemase Activity: −2106.4115
E. coli; E. coli AEL18, known carbapenemase none
  Carbapenemase Activity: −1551.4885
E. coli; E. coli AEL19, known carbapenemase none
  Carbapenemase Activity: −696.4825
E. coli; E. coli AEL 20, known carbapenemase none
  Carbapenemase Activity: −882.3165
E. coli; E. coli AR0346, known carbapenemase none, ESBL +
  Carbapenemase Activity: −2560.861
E. coli; E. coli AR0348, known carbapenemase none
  Carbapenemase Activity: −2960.1665
E. coli; E. coli AR0349, known carbapenemase none, ESBL +
  Carbapenemase Activity: −2861.008
E. coli; E. coli CDC BIT 01, known carbapenemase KPC
  Carbapenemase Activity: 8803.9255
E. coli; E. coli CDC CNP 27, known carbapenemase none, ESBL +
  Carbapenemase Activity: −2401.2335
E. coli; E. coli CDC CNP 38, known carbapenemase NDM
  Carbapenemase Activity: 19534.8825
E. coli; E. coli CDC CNP 54, known carbapenemase none, Amp beta lactamase
  Carbapenemase Activity: −1950.443
E. coli; E. coli CDC CNP 73, known carbapenemase KPC
  Carbapenemase Activity: 3480.1845
E. coli; E. coli CDC CRE 03, known carbapenemase KPC-3
  Carbapenemase Activity: 7149.729
E. coli; E. coli CDC CRE 07, known carbapenemase NDM
  Carbapenemase Activity: 27447.359
E. coli; E. coli CDC CRE 17, known carbapenemase NDM
  Carbapenemase Activity: 36400.9235
E. coli; E. coli CDC CRE 26, known carbapenemase NDM
  Carbapenemase Activity: 41326.61
E. coli; E. coli SML 19, known carbapenemase none
  Carbapenemase Activity: −2540.0545
E. coli; E. coli SML20, known carbapenemase none
  Carbapenemase Activity: −2734.3825
E. coli; E. coli TRICORE 71, known carbapenemase none
  Carbapenemase Activity: −1138.2225
E. coli; E. coli TRICORE 72, known carbapenemase none
  Carbapenemase Activity: −2554.797
K. pneumoniae; K. pneumoniae 700603, known carbapenemase none
  Carbapenemase Activity: −2659.8725
K. pneumoniae; K. pneumoniae CDC CNP 03, known carbapenemase IMP
  Carbapenemase Activity: 3662.106
K. pneumoniae; K. pneumoniae CDC CNP 08, known carbapenemase OXA-181
  Carbapenemase Activity: 1323.2385
K. pneumoniae; K. pneumoniae CDC CNP 09, known carbapenemase VIM
  Carbapenemase Activity: 2315.76
K. pneumoniae; K. pneumoniae SML86, known carbapenemase none
  Carbapenemase Activity: −1861.1485
K. pneumoniae; K. pneumoniae SML87, known carbapenemase none
  Carbapenemase Activity: −3075.4205
E coli [1]; E coli AR 69, known carbapenemase NDM, 50 μg/mL imipenem
  Carbapenemase Activity in various concentrations of imipenem: 1111
E coli [1]; E coli AR 69, known carbapenemase NDM, 125 μg/mL imipenem
  Carbapenemase Activity in various concentrations of imipenem: 3367
E coli [1]; E coli AR 69, known carbapenemase NDM, 250 μg/mL imipenem
  Carbapenemase Activity in various concentrations of imipenem: 2827
E coli [1]; E coli AR 69, known carbapenemase NDM, 500 μg/mL imipenem
  Carbapenemase Activity in various concentrations of imipenem: 2300.5
E coli [1]; E coli AR 69, known carbapenemase NDM, 1250 μg/mL imipenem
  Carbapenemase Activity in various concentrations of imipenem: 1908.5
E coli [1]; E coli AR 69, known carbapenemase NDM, 2500 μg/mL imipenem
  Carbapenemase Activity in various concentrations of imipenem: 1902.5
E coli [1]; E coli AR 114, known carbapenemase KPC3, 50 μg/mL imipenem
  Carbapenemase Activity in various concentrations of imipenem: 930.5
E coli [1]; E coli AR 114, known carbapenemase KPC3, 125 μg/mL imipenem
  Carbapenemase Activity in various concentrations of imipenem: 3793.5
E coli [1]; E coli AR 114, known carbapenemase KPC3, 250 μg/mL imipenem
  Carbapenemase Activity in various concentrations of imipenem: 3342.5
E coli [1]; E coli AR 114, known carbapenemase KPC3, 500 μg/mL imipenem
  Carbapenemase Activity in various concentrations of imipenem: 2784.5
E coli [1]; E coli AR 114, known carbapenemase KPC3, 1250 μg/mL imipenem
  Carbapenemase Activity in various concentrations of imipenem: 2173.5
E coli [1]; E coli AR 114, known carbapenemase KPC3, 2500 μg/mL imipenem
  Carbapenemase Activity in various concentrations of imipenem: 1825.5
E coli [1]; E coli ATCC 25922, known carbapenemase none, 50 μg/mL imipenem
  Carbapenemase Activity in various concentrations of imipenem: −70.5
E coli [1]; E coli ATCC 25922, known carbapenemase none, 125 μg/mL imipenem
  Carbapenemase Activity in various concentrations of imipenem: −522
E coli [1]; E coli ATCC 25922, known carbapenemase none, 250 μg/mL imipenem
  Carbapenemase Activity in various concentrations of imipenem: −599.5
E coli [1]; E coli ATCC 25922, known carbapenemase none, 500 μg/mL imipenem
  Carbapenemase Activity in various concentrations of imipenem: −558.5
E coli [1]; E coli ATCC 25922, known carbapenemase none, 1250 μg/mL imipenem
  Carbapenemase Activity in various concentrations of imipenem: −463.5
E coli [1]; E coli ATCC 25922, known carbapenemase none, 2500 μg/mL imipenem
  Carbapenemase Activity in various concentrations of imipenem: −282
K pneumoniae [2]; K pneumoniae AR 34, known carbapenemase IMP, 50 μg/mL imipenem
  Carbapenemase Activity in various concentrations of imipenem: 1034.5
K pneumoniae [2]; K pneumoniae AR 34, known carbapenemase IMP, 125 μg/mL imipenem
  Carbapenemase Activity in various concentrations of imipenem: 2776.5
K pneumoniae [2]; K pneumoniae AR 34, known carbapenemase IMP, 250 μg/mL imipenem
  Carbapenemase Activity in various concentrations of imipenem: 2456.5
K pneumoniae [2]; K pneumoniae AR 34, known carbapenemase IMP, 500 μg/mL imipenem
  Carbapenemase Activity in various concentrations of imipenem: 1807.5
K pneumoniae [2]; K pneumoniae AR 34, known carbapenemase IMP, 1250 μg/mL imipenem
  Carbapenemase Activity in various concentrations of imipenem: 1148
K pneumoniae [2]; K pneumoniae AR 34, known carbapenemase IMP, 2500 μg/mL imipenem
  Carbapenemase Activity in various concentrations of imipenem: 637.5
K pneumoniae [2]; K pneumoniae ATCC BAA-2342, known carbapenemase KPC, 50 μg/mL imipenem
  Carbapenemase Activity in various concentrations of imipenem: 1817
K pneumoniae [2]; K pneumoniae ATCC BAA-2342, known carbapenemase KPC, 125 μg/mL imipenem
  Carbapenemase Activity in various concentrations of imipenem: 4702.5
K pneumoniae [2]; K pneumoniae ATCC BAA-2342, known carbapenemase KPC, 250 μg/mL imipenem
  Carbapenemase Activity in various concentrations of imipenem: 4270.5
K pneumoniae [2]; K pneumoniae ATCC BAA-2342, known carbapenemase KPC, 500 μg/mL imipenem
  Carbapenemase Activity in various concentrations of imipenem: 3708
K pneumoniae [2]; K pneumoniae ATCC BAA-2342, known carbapenemase KPC, 1250 μg/mL imipenem
  Carbapenemase Activity in various concentrations of imipenem: 3251
K pneumoniae [2]; K pneumoniae ATCC BAA-2342, known carbapenemase KPC, 2500 μg/mL imipenem
  Carbapenemase Activity in various concentrations of imipenem: 3114.5
E coli [3]
  Carbapenemase Activity: −6116
K pneumoniae [4]; K pneumoniae ATCC 700603, known carbapenemase none, 300 μg/mL imipenem
  Carbapenemase Activity: −2026
K pneumoniae [4]; K pneumoniae ATCC BAA-1705, known carbapenemase KPC2, 300 μg/mL imipenem
  Carbapenemase Activity: 19742
K pneumoniae [4]; K pneumoniae ATCC BAA-2814, known carbapenemase KPC3, 300 μg/mL imipenem
  Carbapenemase Activity: 18057

## C[C@]1(Cn2ccnn2)[C@H](C(=O)O)N2C(=O)C[C@H]2S1(=O)=O [tazobactam]
Beta lactamase
  inhibitor activity against strains with known beta lactamases (reduction in nitrocefin absorbance at 490 nm): active

Reference: patent US11835523B2, “Assays for improving automated antimicrobial susceptibility testing accuracy” (priority 2018, dated 2023)
